Experiments:
Assay in all cases: KINOMEscan kinase binding assay (Eurofins/DiscoveRx), % Ctrl
[1] = target: T1, kinases (Homo sapiens, UniProt P00519, M351T); settings: 1 μM; target ABL1(M351T)-phosphorylated
T1 construct: purchased Eurofins/DiscoveRx; host or cells: E. coli BL21-derived host (T7 phage display) for most kinases; HEK-293 for the rest
In short: (§1)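 Competition binding: DNA- or phage-tagged kinases (T7 phage in E. coli BL21, or HEK-293-expressed) with immobilized biotinylated ligand beads and test compound, 1 h at room temperature. Bead-bound kinase eluted and quantified by qPCR; % Ctrl = (compound − positive control)/(negative control − positive control) ×100 at a single compound concentration.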

[2] = target: T2, kinases (Homo sapiens, UniProt P00533); settings: 1 μM; target EGFR
T2 construct: purchased Eurofins/DiscoveRx; host or cells: E. coli BL21-derived host (T7 phage display) for most kinases; HEK-293 for the rest
In short: as §1

[3] = target: T3, kinases (Homo sapiens, UniProt P00533, DEL746-750); settings: 1 μM; target EGFR(E746-A750del)
T3 construct: purchased Eurofins/DiscoveRx; host or cells: E. coli BL21-derived host (T7 phage display) for most kinases; HEK-293 for the rest
In short: as §1

[4] = target: T4, kinases (Homo sapiens, UniProt P00533, L861Q); settings: 1 μM; target EGFR(L861Q)
T4 construct: purchased Eurofins/DiscoveRx; host or cells: E. coli BL21-derived host (T7 phage display) for most kinases; HEK-293 for the rest
In short: as §1

[5] = target: T5, kinases (Homo sapiens, UniProt P00533, T790M); settings: 1 μM; target EGFR(T790M)
T5 construct: purchased Eurofins/DiscoveRx; host or cells: E. coli BL21-derived host (T7 phage display) for most kinases; HEK-293 for the rest
In short: as §1

[6] = target: T6, kinases (Homo sapiens, UniProt P07949); settings: 1 μM; target RET
T6 construct: purchased Eurofins/DiscoveRx; host or cells: E. coli BL21-derived host (T7 phage display) for most kinases; HEK-293 for the rest
T6 sequence (P07949 29-1114): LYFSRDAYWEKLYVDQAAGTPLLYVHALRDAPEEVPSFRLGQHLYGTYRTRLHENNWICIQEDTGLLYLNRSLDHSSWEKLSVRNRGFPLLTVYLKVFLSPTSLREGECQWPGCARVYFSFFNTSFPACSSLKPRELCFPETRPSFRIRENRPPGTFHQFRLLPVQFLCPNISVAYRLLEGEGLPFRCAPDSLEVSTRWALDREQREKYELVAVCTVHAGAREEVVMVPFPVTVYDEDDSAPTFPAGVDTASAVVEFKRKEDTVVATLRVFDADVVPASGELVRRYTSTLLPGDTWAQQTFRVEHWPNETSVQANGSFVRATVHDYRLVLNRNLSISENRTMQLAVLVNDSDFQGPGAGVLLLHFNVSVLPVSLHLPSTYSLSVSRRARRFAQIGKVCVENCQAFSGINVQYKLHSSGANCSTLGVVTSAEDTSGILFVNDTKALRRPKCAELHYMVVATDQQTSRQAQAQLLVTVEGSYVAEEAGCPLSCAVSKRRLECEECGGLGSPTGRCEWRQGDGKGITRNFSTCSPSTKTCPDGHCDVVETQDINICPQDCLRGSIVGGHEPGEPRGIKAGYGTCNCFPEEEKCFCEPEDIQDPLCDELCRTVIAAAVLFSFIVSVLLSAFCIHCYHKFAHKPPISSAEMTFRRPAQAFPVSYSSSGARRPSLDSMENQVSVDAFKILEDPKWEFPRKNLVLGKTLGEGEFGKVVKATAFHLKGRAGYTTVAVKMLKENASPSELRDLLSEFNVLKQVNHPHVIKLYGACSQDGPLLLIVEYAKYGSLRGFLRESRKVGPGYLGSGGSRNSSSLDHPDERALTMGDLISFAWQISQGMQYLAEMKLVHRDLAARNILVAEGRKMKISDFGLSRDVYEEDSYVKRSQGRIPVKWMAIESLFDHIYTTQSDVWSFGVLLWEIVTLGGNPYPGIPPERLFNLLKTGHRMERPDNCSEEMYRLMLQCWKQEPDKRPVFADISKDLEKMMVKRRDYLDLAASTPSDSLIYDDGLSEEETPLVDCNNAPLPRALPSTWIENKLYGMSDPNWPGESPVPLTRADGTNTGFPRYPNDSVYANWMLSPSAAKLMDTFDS
In short: as §1

[7] = target: T7, kinases (Homo sapiens, UniProt P07949, V804L); settings: 1 μM; target RET(V804L)
T7 construct: purchased Eurofins/DiscoveRx; host or cells: E. coli BL21-derived host (T7 phage display) for most kinases; HEK-293 for the rest
T7 sequence (P07949 29-1114 V804L): as the sequence (P07949 29-1114) above, with V776L counted along it
In short: as §1

[8] = target: T8, kinases (Homo sapiens, UniProt P10721, A829P); settings: 1 μM; target KIT(A829P)
T8 construct: purchased Eurofins/DiscoveRx; host or cells: E. coli BL21-derived host (T7 phage display) for most kinases; HEK-293 for the rest
T8 sequence (P10721 26-976 A829P): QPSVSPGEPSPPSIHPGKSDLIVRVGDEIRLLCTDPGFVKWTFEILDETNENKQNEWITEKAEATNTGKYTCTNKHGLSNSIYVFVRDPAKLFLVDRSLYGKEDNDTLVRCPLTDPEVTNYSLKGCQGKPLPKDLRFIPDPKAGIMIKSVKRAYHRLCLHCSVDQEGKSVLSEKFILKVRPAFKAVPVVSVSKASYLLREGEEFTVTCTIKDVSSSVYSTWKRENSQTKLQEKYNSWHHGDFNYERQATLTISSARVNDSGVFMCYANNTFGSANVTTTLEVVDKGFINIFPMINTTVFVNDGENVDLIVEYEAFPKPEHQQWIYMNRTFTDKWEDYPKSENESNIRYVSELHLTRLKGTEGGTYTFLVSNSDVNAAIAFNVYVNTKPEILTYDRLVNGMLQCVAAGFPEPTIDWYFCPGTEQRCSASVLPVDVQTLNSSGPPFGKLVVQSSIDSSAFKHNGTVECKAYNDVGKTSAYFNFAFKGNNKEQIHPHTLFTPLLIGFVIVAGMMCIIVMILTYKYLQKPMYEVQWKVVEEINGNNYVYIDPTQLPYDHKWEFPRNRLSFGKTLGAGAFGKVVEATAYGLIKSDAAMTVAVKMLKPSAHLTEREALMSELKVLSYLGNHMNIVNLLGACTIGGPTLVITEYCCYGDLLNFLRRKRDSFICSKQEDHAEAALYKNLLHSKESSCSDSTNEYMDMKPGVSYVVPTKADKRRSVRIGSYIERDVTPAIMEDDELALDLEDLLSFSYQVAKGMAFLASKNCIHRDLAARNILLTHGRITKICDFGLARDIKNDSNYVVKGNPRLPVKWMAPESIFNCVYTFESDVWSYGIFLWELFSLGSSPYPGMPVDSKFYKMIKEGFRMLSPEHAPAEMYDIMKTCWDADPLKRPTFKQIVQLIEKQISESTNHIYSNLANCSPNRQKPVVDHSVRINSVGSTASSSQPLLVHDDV
In short: as §1

[9] = target: T9, kinases (Homo sapiens, UniProt P10721, D816H); settings: 1 μM; target KIT(D816H)
T9 construct: purchased Eurofins/DiscoveRx; host or cells: E. coli BL21-derived host (T7 phage display) for most kinases; HEK-293 for the rest
T9 sequence (P10721 26-976 D816H): as the sequence (P10721 26-976 A829P) above, with D791H, P804A counted along it
In short: as §1

[10] = target: T10, kinases (Homo sapiens, UniProt P36888, K663Q); settings: 1 μM; target FLT3(K663Q)
T10 construct: purchased Eurofins/DiscoveRx; host or cells: E. coli BL21-derived host (T7 phage display) for most kinases; HEK-293 for the rest
T10 sequence (P36888 27-993 K663Q): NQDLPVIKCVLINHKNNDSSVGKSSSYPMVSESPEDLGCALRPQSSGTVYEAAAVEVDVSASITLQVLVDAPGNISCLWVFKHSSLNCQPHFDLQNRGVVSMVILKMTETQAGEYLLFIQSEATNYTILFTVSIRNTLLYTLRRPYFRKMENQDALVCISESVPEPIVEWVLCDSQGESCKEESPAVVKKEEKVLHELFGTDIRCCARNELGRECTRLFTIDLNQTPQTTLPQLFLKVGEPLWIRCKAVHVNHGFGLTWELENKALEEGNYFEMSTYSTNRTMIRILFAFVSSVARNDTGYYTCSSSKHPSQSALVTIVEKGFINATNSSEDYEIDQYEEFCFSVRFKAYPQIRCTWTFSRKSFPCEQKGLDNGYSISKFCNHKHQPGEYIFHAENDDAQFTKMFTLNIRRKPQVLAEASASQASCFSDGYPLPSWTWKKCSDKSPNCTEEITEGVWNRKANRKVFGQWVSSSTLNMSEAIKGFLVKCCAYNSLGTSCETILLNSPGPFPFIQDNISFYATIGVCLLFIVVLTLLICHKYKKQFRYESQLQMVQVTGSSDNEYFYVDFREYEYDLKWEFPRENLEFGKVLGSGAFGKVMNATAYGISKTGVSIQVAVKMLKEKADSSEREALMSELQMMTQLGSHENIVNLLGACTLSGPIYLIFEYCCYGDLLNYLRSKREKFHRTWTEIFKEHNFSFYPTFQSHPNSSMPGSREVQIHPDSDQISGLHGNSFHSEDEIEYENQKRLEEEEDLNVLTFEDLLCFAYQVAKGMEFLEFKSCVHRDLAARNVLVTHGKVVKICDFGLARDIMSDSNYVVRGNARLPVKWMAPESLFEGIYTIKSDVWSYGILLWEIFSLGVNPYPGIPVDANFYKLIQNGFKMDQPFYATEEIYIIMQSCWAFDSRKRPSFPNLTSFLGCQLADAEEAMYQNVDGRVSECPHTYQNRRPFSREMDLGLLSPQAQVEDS
In short: as §1

[11] = system: kinases; settings: 1 μM; for % Ctrl, EGFR(L747-E749del, A750P): target EGFR(L747-E749del, A750P); for % Ctrl, EGFR(L747-S752del, P753S): target EGFR(L747-S752del, P753S); for % Ctrl, EGFR(L747-T751del, Sins): target EGFR(L747-T751del, Sins); for % Ctrl, FLT3(ITD): target FLT3(ITD); for % Ctrl, FLT3(ITD, D835V): target FLT3(ITD, D835V); for % Ctrl, FLT3(ITD, F691L): target FLT3(ITD, F691L)
In short: as §1

Structure (SMILES) | % Ctrl, ABL1(M351T)-phosphorylated [1] [% Ctrl] | % Ctrl, EGFR [2] [% Ctrl] | % Ctrl, EGFR(E746-A750del) [3] [% Ctrl] | % Ctrl, EGFR(L861Q) [4] [% Ctrl] | % Ctrl, EGFR(T790M) [5] [% Ctrl] | % Ctrl, RET [6] [% Ctrl] | % Ctrl, RET(V804L) [7] [% Ctrl] | % Ctrl, KIT(A829P) [8] [% Ctrl] | % Ctrl, KIT(D816H) [9] [% Ctrl] | % Ctrl, FLT3(K663Q) [10] [% Ctrl] | % Ctrl, EGFR(L747-E749del, A750P) [11] [% Ctrl] | % Ctrl, EGFR(L747-S752del, P753S) [11] [% Ctrl] | % Ctrl, EGFR(L747-T751del, Sins) [11] [% Ctrl] | % Ctrl, FLT3(ITD) [11] [% Ctrl] | % Ctrl, FLT3(ITD, D835V) [11] [% Ctrl] | % Ctrl, FLT3(ITD, F691L) [11] [% Ctrl]
Cc1cc2c([nH]1)/C=C1\C(=O)Nc3ccc(cc31)-c1c(noc1C(C)C)COCCN(C)C2=O [Ex. 161, [3a(4)Z]-9-methyl-16-(propan-2-yl)-10,11-dihydro-2H,13H-1,17-(ethanediylidene)[1,2]oxazolo[4,3-m]dipyrrolo[3,2-f:3′,4′-i][1,4]oxazacyclopentadecine-3,8(5H,9H)-dione] | 81 | 73 | 87 | 100 | 100 | 97 | 72 | 95 | 100 | 54 | 100 | 80 | 93 | 85 | 83 | 82
CN1CCOc2cc3c(cc2Cl)NC(=O)/C3=C\c2[nH]ccc2C(=O)N(C)CC1 [Ex. 164, [16a(17)Z]-19-chloro-2,5,8-trimethyl-5,6,7,8,9,10-hexahydro-12,14-(ethanediylidene)dipyrrolo[3,2-i:3′,4′-l][1,4,7]oxadiazacyclopentadecine-4,16(1H,15H)-dione] | 0.3 | 95 | 18 | 63 | 97 | 0 | 1.2 | 33 | 22 | 1.4 | 19 | 47 | 45 | 0.9 | 0.3 | 1

The next lines start with the values.

% Ctrl, ABL1(M351T)-phosphorylated [1] [% Ctrl] | % Ctrl, EGFR [2] [% Ctrl] | % Ctrl, EGFR(E746-A750del) [3] [% Ctrl] | % Ctrl, EGFR(L861Q) [4] [% Ctrl] | % Ctrl, EGFR(T790M) [5] [% Ctrl] | % Ctrl, RET [6] [% Ctrl] | % Ctrl, RET(V804L) [7] [% Ctrl] | % Ctrl, KIT(A829P) [8] [% Ctrl] | % Ctrl, KIT(D816H) [9] [% Ctrl] | % Ctrl, FLT3(K663Q) [10] [% Ctrl] | % Ctrl, EGFR(L747-E749del, A750P) [11] [% Ctrl] | % Ctrl, EGFR(L747-S752del, P753S) [11] [% Ctrl] | % Ctrl, EGFR(L747-T751del, Sins) [11] [% Ctrl] | % Ctrl, FLT3(ITD) [11] [% Ctrl] | % Ctrl, FLT3(ITD, D835V) [11] [% Ctrl] | % Ctrl, FLT3(ITD, F691L) [11] [% Ctrl] | Structure (SMILES)
3.1 | 70 | 84 | 99 | 26 | 7.1 | 0.3 | 28 | 10 | 1.7 | 62 | 98 | 90 | 0.3 | 0.6 | 0 | Cc1cc2c([nH]1)/C=C1\C(=O)Nc3ccc(cc31)-c1cnn(C)c1OCCCN(C)C2=O [Ex. 166, [3a(4)Z]-9,14-dimethyl-9,10,11,12-tetrahydro-14H-1,17-(ethanediylidene)pyrazolo[4,3-n]dipyrrolo[3,2-g:3′,4′-j][1,5]oxazacyclopentadecine-3,8(2H,5H)-dione]
0.1 | 42 | 9.9 | 77 | 69 | 0 | 0.2 | 22 | 8.3 | 2.7 | 44 | 56 | 30 | 0.9 | 0.4 | 0.1 | Cc1cc2c([nH]1)/C=C1\C(=O)Nc3cc(Cl)c(cc31)SCCOCCN(C)C2=O [Ex. 169, [16a(17)Z]-19-chloro-5-methyl-6,7,9,10-tetrahydro-1H-12,14-(ethanediylidene)dipyrrolo[3,4-g:2′,3′-j][1,4,13]oxathiazacyclopentadecine-4,16(5H,15H)-dione]
0.4 | 36 | 43 | 75 | 22 | 3.1 | 0.5 | 31 | 6.4 | 0.6 | 62 | 52 | 43 | 1.1 | 0.3 | 0.3 | Cc1cc2c([nH]1)/C=C1\C(=O)Nc3cnc(cc31)-c1cnn(C)c1CN(C)CCN(C)C2=O [Ex. 172, [3a(4)Z]-6,9,12,14-tetramethyl-9,10,11,12,13,14-hexahydro-17,1-(azenometheno)pyrazolo[4,3-m]dipyrrolo[3,2-f:3′,4′-i][1,4]diazacyclopentadecine-3,8(2H,5H)-dione]

From patent US20230257396A1, “MACROCYCLES AND THEIR USE” (BLOSSOMHILL THERAPEUTICS, INC., priority 2020, published 2023)
